Data: US12398115B2, “Chrysophaentin analogs and use thereof” (Vanderbilt University, priority 2019, dated 2025)
In brackets after ≈: the same amount, converted by molar mass. Entries after “also recorded” stand apart in the source; their conditions may differ. Read-outs that look alike come from different tables or passages of the source.

Columns and labels:
[1] = tested on: B. subtilis (PY79 WT) peptidoglycan synthesis; assay: HADA (FDAA) incorporation microscopy assay, peptidoglycan synthesis; assay type: cell-based, Bacillus subtilis; details: for inhibition of peptidoglycan synthesis (FDAA incorporation): B. subtilis, FIGS. 7B and 7C
Method: HADA was synthesized according to the reported protocols. Exponentially growing B. subtilis (PY79 WT) cells for the experiments were prepared as described above. […] After a 5-minute incubation at 37° C., HADA stock solution (100 mM) was directly added to the cultures to a final concentration of 0.5 mM. The cultures were then incubated in a 37° C. shaker for 30 minutes. Cell fixation was then carried out by directly adding 0.7 ml 100% ethanol to the cultures, following 1-hour incubation on ice-bath. The fixed cells were collected using centrifuge (9000 g, 3 minutes), washed with 1×PBS twice, and then resuspended into 1×PBS. The cells were imaged using Nikon Ti-E microscope. HADA signal was detected using DAPI filter set (Excitation 395/25 nm; emission 435/26 nm). HADA intensity was analyzed using ImageJ and MicrobeJ plug-in.

[2] = tested on: FtsZ/FtsA/PBP2B localization in B. subtilis; assay: Imaging of fluorescently labeled FtsZ, FtsA and PBP2B (mNeonGreen); assay type: cell-based, Bacillus subtilis; details: for localization of FtsZ: B. Subtilis, concentration not given; for localization of FtsZ, FtsA and PBP2B: B. subtilis, FIG. 7D; for localization of fluorescently labeled FtsZ (mNeonG): 10 μM (5×MIC), high-resolution microscopy
Method: B. subtilis strains with fluorescent protein fusion were made (FtsZ-mNeonGreen: bAB185, FtsA-mNeonGreen: bAB167, PBP2B-mNeonGreen: bAB109). Exponentially growing cells for the experiments were prepared as described above. Antibiotic stock solutions were added to 0.3 ml exponentially growing cell cultures to a final concentration of 5×MIC. The cells were incubated at 37° C. for 5 minutes and then immediately imaged using the Ti-E microscope without fixation. mNeonGreen signal was detected using FITC filter set (Excitation 470/24 nm; emission 510/40 nm). Image processing was performed in ImageJ. Images were scaled without interpolation, cropped and rotated. Linear adjustment was performed to optimize contrast and brightness of the images. All the images from the same experiment were processed in the same way in order to ensure fair comparison.

[3] = tested on: Bacillus subtilis (PY79 WT); assay: Cell lengthening assay; assay type: cell-based; details: for cell lengthening: B. Subtilis; for cell lengthening phenotype: B. subtilis, FIG. 7A, concentration not given
Method: Bacillus subtilis (PY79 WT, lab stock) were inoculated from an overnight plate culture (single colony) to 3 ml LB in 15 ml culture tubes. The cultures were incubated in a 37° C. shaker until OD600 reached 0.2. The cultures were then diluted with fresh LB to OD600 0.05, followed by another round of incubation to OD600 0.2. At this point, cells have reached exponentially growing states and were used for experiments. […] The cultures were incubated at a 37° C. shaker for 40 minutes, followed by direct addition of 0.7 ml 100% ethanol (70% final ethanol concentration) and then incubation on ice-bath for 1 hour. The fixed cells were imaged using a Nikon Ti-E inverted microscope equipped with a 1.4NA Plan Apo 60X oil objective and Andor iXon EMCCD camera. Cell images were captured under phase-to-contrast channel. Cell length was analyzed using ImageJ and MicrobeJ plug-in.

S. aureus ATCC 25293 [4] = assay: Microbroth dilution growth inhibition; assay type: cell-based; details: Staphylococcus aureus, ATCC25293; S. aureus ATCC 25293, microbroth dilution
Method: (§1) VU0848355 and VU0848354 were evaluated for growth inhibition against S. aureus and inhibition of GTPase activity against S. aureus FtsZ using a biochemical assay (FIGS. 6A-6C).

Gram-positive pathogens = assay: Comparison of bacterial growth inhibition across panel; assay type: cell-based; details: for potency in inhibiting bacterial growth relative to natural C-ring isomers VU0849855 and VU0848355: FIGS. 5A-5C
Method: (§2) MICs for all compounds were determined using the CLSI guidelines on the test strains. Solutions of each compound were prepared by dissolution in DMSO (Sigma Aldrich, St. Louis MO) at a concentration of 10-20 mg mL^−1. […] Stock solutions were added to Mueller-Hinton II broth and serial two-fold dilutions were prepared in a 96-well microtiter plate (50 μL per well). Fifty microliters (50 μL) of inoculum containing 1×10^6 CFU mL^−1 for E. coli, S. aureus, or MRSA, or 2×10^6 CFU mL^−1 for E. faecalis or VRE were added to the wells. Plates were covered with a sterile membrane, placed in a plate reader, and agitated for 2 min to mix the contents of the wells. Plates were incubated at 37° C. for 16 h. Wells containing 4% DMSO or gentamycin served as negative and positive controls. […] Each assay was performed in triplicate and two independent experiments were carried out on separate days.
The bacterial growth inhibition of synthetic 9-dechlorochrysophaentins compared favorably to chrysophaentin A when evaluated across a panel of Gram-positive pathogens (Table 1).

S. aureus ATCC 25293 [5] = assay: Agar diffusion assay; assay type: cell-based, Staphylococcus aureus
Method: as §1

B. Subtilis [6] = assay: Time-lapse microscopy of FtsZ motion; assay type: cell-based, Bacillus subtilis; details: 5×MIC
Method: Time-lapse microscopy was employed to monitor the dynamics of FtsZ motion before and after treatment by these compounds. FtsZ movement drives the septal peptidoglycan synthesis machinery in B. subtilis. The movement is carried out by a “treadmilling process” where FtsZ monomer polymerizes at one end and disassembles at the other. FtsZ polymerization is triggered by binding to GTP while its disassembly is catalyzed by GTP hydrolysis to GDP.

S. aureus FtsZ = target: T1, S. aureus FtsZ (Staphylococcus aureus, UniProt P0A031); assay: Biochemical GTPase-FtsZ inhibition assay
T1 sequence (P0A031 1-390): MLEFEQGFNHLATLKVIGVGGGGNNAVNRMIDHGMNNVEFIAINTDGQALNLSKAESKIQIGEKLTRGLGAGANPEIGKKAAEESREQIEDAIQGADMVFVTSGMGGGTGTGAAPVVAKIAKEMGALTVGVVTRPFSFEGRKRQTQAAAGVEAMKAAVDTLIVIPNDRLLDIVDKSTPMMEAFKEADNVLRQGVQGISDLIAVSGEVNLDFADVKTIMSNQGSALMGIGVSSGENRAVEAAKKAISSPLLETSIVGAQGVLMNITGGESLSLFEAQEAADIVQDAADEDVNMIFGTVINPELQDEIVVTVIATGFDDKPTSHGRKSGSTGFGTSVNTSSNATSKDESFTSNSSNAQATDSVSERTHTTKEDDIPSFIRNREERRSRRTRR
Method: as §1

[7] = tested on: MRSA, methicillin-resistant S. aureus (ATCC 43300); assay: Minimum inhibitory concentration, broth microdilution (CLSI); assay type: cell-based, Staphylococcus aureus; details: for MIC50: Staphylococcus aureus
Text: (§3) Chemicals-FtsZ inhibitor PC190723 and ampicllin were purchased from Millipore Sigma Aldrich (St. Louis, MO). Chrysophaentin A was obtained from a 2017 collection of the marine alga C. taylorii collected in the U.S. Virgin Islands (Permit VIIS-2017-SCI-0034) and isolated as described previously. All bacterial strains used for drug susceptibility testing were obtained from the American Type Culture Collection (Manassas, VA) and included Escherichia coli (ATCC 25922), Enterococcus faecalis (ATCC 29212), vancomycin-resistant E. faecalis (VRE, ATCC 51299), Staphylococcus aureus (ATCC 25913), and methicillin-resistant S. aureus (MRSA, ATCC 43300). Strains were maintained on agar slants at 4° C. and sub-cultured on fresh agar plates containing ATCC-recommended media. Strains were cultured in liquid media 16 h prior to any antimicrobial screen. BD BBL™ Mueller-Hinton II broth (Fisher Scientific, Hampton NH) was used for MIC determinations.
as §2

S. aureus (ATCC 25913) = assay: as above; assay type: cell-based, Staphylococcus aureus; details: for MIC50: Staphylococcus aureus, ATCC25913
Text: as §3, §2

[8] = tested on: Enterococcus faecalis (ATCC 29212); assay: as above; assay type: cell-based; details: for MIC50: Enterococcus faecalis, ATCC29212, read-out: MIC50 E. Faecalis
Text: as §3, §2

[9] = tested on: VRE, vancomycin-resistant E. faecalis (ATCC 51299); assay: as above; assay type: cell-based, Enterococcus faecalis; details: for MIC50: Enterococcus
Text: as §3, §2

B. Subtilis [10] = assay: Minimum inhibitory concentration; assay type: cell-based; details: Bacillus subtilis; read-out: MIC50 B. Subtifis
[11] = tested on: gram-positive bacteria, such as MRSA; details: against gram-positive bacteria; cited from earlier work

CC1(C)S[C@@H]2[C@H](NC(=O)[C@H](N)c3ccccc3)C(=O)N2[C@H]1C(=O)O [Ampicillin, ampicillin, reference compound]
inhibition of peptidoglycan synthesis (FDAA incorporation) [1]: inhibit peptidoglycan synthesis

NC(=O)c1c(F)ccc(OCc2nc3cc(Cl)cnc3s2)c1F [PC190723, reference compound]
localization of FtsZ [2]: dislocation but retention of FtsZ
cell lengthening ([3]; 5 μg/mL (10×MIC)): Cell lengthening was observed
cell lengthening phenotype [3]: produces the expected cell lengthening phenotype
cell lengthening phenotype ([3]; listed as PC1907723): leads to expected cell lengthening
inhibition of peptidoglycan synthesis (FDAA incorporation) [1]: does not
inhibition of FDAA incorporation ([1]; up to 10×MIC): minimal inhibition of FDAAs incorporation

COc1cc2cc(OC)c1Oc1cc(c(O)cc1Cl)C/C=C\Cc1cc(O)cc(O)c1Oc1ccc(O)c(c1Cl)C/C=C(/Cl)C2 [VU0848354]
IC50 (S. aureus ATCC 25293 [4]): < 1 µM
localization of FtsZ, FtsA and PBP2B [2]: displace FtsZ/A and penicillin binding protein PBP2B; also recorded: unique dispersion of FtsZ, FtsA and PBP2B
potency in inhibiting bacterial growth relative to natural C-ring isomers VU0849855 and VU0848355 (Gram-positive pathogens): approximately two-fold
growth inhibition, agar diffusion (S. aureus ATCC 25293 [5]): inhibited growth of S. aureus
cell lengthening phenotype [3]: neither VU0848355 and VU0848354 replicates the cell lengthening phenotype
cell elongation (B. Subtilis [6]): did not elongate
IC50 (S. aureus FtsZ; S. aureus FtsZ biochemical assay, read-out: IC50 GTPase-FtsZ inhibition): > 250 µM
inhibition of peptidoglycan synthesis (FDAA incorporation) [1]: inhibit peptidoglycan synthesis; also recorded: inhibited both lateral and septal peptidoglycan synthesis

COc1cc2cc(OC)c1Oc1cc(c(O)cc1Cl)C/C=C\Cc1cc(O)cc(O)c1Oc1cc(c(O)cc1Cl)C/C=C(/Cl)C2 [VU0848355]
IC50 (S. aureus ATCC 25293 [4]): < 1 µM
localization of FtsZ, FtsA and PBP2B [2]: displace FtsZ/A and penicillin binding protein PBP2B; also recorded: unique dispersion of FtsZ, FtsA and PBP2B
growth inhibition, agar diffusion (S. aureus ATCC 25293 [5]): inhibited growth of S. aureus
cell lengthening phenotype [3]: neither VU0848355 and VU0848354 replicates the cell lengthening phenotype
IC50 (S. aureus FtsZ): > 250 µM
inhibition of peptidoglycan synthesis (FDAA incorporation) [1]: inhibit peptidoglycan synthesis; also recorded: inhibited both lateral and septal peptidoglycan synthesis

Oc1cc(O)c2c(c1)C/C=C\Cc1cc(c(Cl)cc1O)Oc1c(O)cc(cc1O)C/C(Cl)=C\Cc1c(O)ccc(c1Cl)O2 [VU0849838, iso-9-dechlorochrysophaentin A]
MIC50 [7]: 1.1 µg/mL (≈ 1.71 µM)
MIC50 (S. aureus (ATCC 25913)): 1.1 µg/mL (≈ 1.71 µM)
localization of fluorescently labeled FtsZ (mNeonG) [2]: complete disassociation of FtsZ
localization of FtsZ [2]: lead to dislocation of FtsZ
potency in inhibiting bacterial growth relative to natural C-ring isomers VU0849855 and VU0848355 (Gram-positive pathogens): approximately two-fold
growth inhibition (MIC) relative to natural chrysophaentin A (Gram-positive pathogens; S. aureus, MRSA and E. faecalis): approximately two-fold
cell lengthening ([3]; up to 20 μM (10×MIC)): did not affect cell lengthening
MIC50 [8]: 0.3 µg/mL (≈ 0.466 µM)
inhibition of FDAA incorporation ([1]; 10 μM (5×MIC)): inhibited incorporation of FDAAs
MIC50 [9]: 2.2 µg/mL (≈ 3.42 µM)
MIC50 (B. Subtilis [10]): 2 µg/mL (≈ 3.11 µM)

Oc1cc(O)c2c(c1)C/C=C\Cc1cc(c(Cl)cc1O)Oc1c(O)cc(cc1O)C/C(Cl)=C\Cc1cc(c(Cl)cc1O)O2 [VU0849855, 9-dechlorochrysophaentin A]
MIC50 [7]: 2.5 µg/mL (≈ 3.88 µM)
MIC50 (S. aureus (ATCC 25913)): 2.5 µg/mL (≈ 3.88 µM)
localization of fluorescently labeled FtsZ (mNeonG) [2]: complete disassociation of FtsZ
localization of FtsZ [2]: lead to dislocation of FtsZ
cell lengthening ([3]; up to 20 μM (10×MIC)): did not affect cell lengthening
MIC50 [8]: 2.5 µg/mL (≈ 3.88 µM)
inhibition of FDAA incorporation ([1]; 10 μM (5×MIC)): inhibited incorporation of FDAAs
MIC50 [9]: 5 µg/mL (≈ 7.77 µM)
MIC50 (B. Subtilis [10]): 4 µg/mL (≈ 6.21 µM)

chrysophaentin A [reference compound]
MIC50 MRSA [7]: 2 µg/mL
MIC50 S. Aureus (S. aureus (ATCC 25913)): 2 µg/mL
localization of FtsZ [2]: leads to dispersion of FtsZ; also recorded: replicated the FtsZ dispersion phenotype
localization of FtsZ, FtsA and PBP2B [2]: led to dispersion of the septal peptidoglycan synthesis machinery
MIC50 [11]: 1 to 4 µM
MIC50 E. Faecalis [8]: 2 µg/mL
MIC50 VRE [9]: 2 µg/mL
